We go through 10 compounds from patent publication US20250145608A1, “KRAS DEGRADING COMPOUNDS COMPRISING ANNULATED 2-AMINO-3-CYANO THIOPHENES” (Boehringer Ingelheim Int'l GmbH Corp., priority 2021, published 2025).

pIC50: −log10 of the molar value. Like-named read-outs stand apart in the source and are kept apart here. Some results are limits rather than exact numbers.

Common to all, as to format: cell-based
In one assay the target is T1, KRAS(G12D) (Homo sapiens, UniProt P01116, G12D).
T1 construct: introduced immediately downstream of the initiating Methionine codon of the endogenous KRAS locus; host or cells: GP5d-HiBit-KRAS(G12D), a CRISPR knock-in at the endogenous locus
T1 sequence (P01116 1-188 isoform P01116-2 G12D): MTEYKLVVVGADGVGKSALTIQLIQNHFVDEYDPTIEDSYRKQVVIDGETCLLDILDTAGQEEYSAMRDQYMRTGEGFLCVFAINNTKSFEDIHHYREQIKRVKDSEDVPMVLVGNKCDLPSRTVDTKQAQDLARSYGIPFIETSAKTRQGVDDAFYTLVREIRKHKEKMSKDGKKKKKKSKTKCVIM
As to the kind of experiment: HiBit degradation assay in GP5d-HiBit-KRAS(G12D) cells (18 h; DC50, Dmax). As for the experimental part: A HiBit protein detection tag (amino acid sequence […], Seq ID No 1) was introduced immediately downstream of the initiating Methionine codon of the endogenous KRAS locus (Ensembl gene ID ENSG00000133703.7) of GP5d cells (ECACC Cat. No. 95090715) by CRISPR-based genome engineering using a KRAS(G12D) mutant donor construct encoding the HiBit tag. […] Correct modification of the KRAS locus was assessed by PCR-based genotyping and Sanger sequencing of the isolated PCR products. The resulting cell line is referred to as GP5d-HiBit-KRAS(G12D).
To assess PROTAC-mediated degradation of KRAS(G12D), GP5d-HiBit-KRAS(G12D) cells were seeded at 25000 cells per well in 100 μL Dulbecco's Modified Eagle medium (Sigma cat. no. D6429) supplemented with 10% fetal calf serum into white bottom opaque 96 well plates (Perkin Elmer cat no. 5680). Plates were incubated at 37° C., 5% CO2 in a humidified incubator over night to allow the cells to adhere. […] Plates were further incubated at 37° C. for 18 hours. Following incubation, 100 μL per well Promega Nano-Glo HiBit lytic detection reagent mix (Promega Nano-Glo HiBit Lytic Detection System #N3050), prepared according to the manufacturer's instructions in the kit, were added. To allow for adequate cell lysis, plates were incubated on an orbital shaker for 15 min and further incubated 30 min at room temperature. Upon completion of cell lysis, luminescence was measured using an Envision plate reader using the Ultrasensitive Luminescence Protocol for 96 well plates. Luminescence levels were normalized by the values obtained with DMSO-treated samples and plotted as percent of DMSO control. DC50 values were computed using a four parametric logistic model. Dmax values represent the maximal extent of degradation observed and is stated as percent of control (% Ctrl.) treatments. DC50 and Dmax are reported in Table 64 for representative compounds of the invention.
(In general: The HiBiT peptide binds its large partner to form an active luciferase.)

Another assay relates to NCI-H358 cells. The experiment in a line: NCI-H358 CTG proliferation assay (120 h) (NSCLC, G12C). The following applies: Homo sapiens. How it is done:
NCI-H358 CTG Proliferation Assay (120 h) (NSCLC, G12C)
NCI-H358 cells (ATCC No. CRL-5807) are dispensed into white bottom opaque 96 well plates (Perkin Elmer cat no. 5680) at a density of 2000 cells per well in 100 μL RPMI-1640 ATCC-Formulation (Gibco #A10491)+10% FCS (fetal calf serum) (assay 1) or into black 384-well plates, flat and clear bottom (Greiner, PNr. 781091) at a density of 200 cells per well in 60 μl RPMI-1640 ATCC-Formulation (Gibco #A10491)+10% FCS (fetal calf serum) (assay 2). […] Compounds (10 mM stock in DMSO) are added at logarithmic dose series using the HP Digital Dispenser D300 (Tecan) (assay 1) or the ECHO acoustic liquid handler system (Beckman Coulter) (assay 2), normalizing for added DMSO and including DMSO controls. For the TO time point measurement, untreated cells are analyzed at the time of compound addition. Plates are incubated for 120 h, and cell viability is measured using CellTiter-Glo luminescent cell viability reagent (Promega product code G7570). Viability (stated as percent of control) is defined as relative luminescence units RLU of each well divided by the RLU of cells in DMSO controls. IC50 values are determined from viability measurements by non-linear regression using a four parameter model.

The test system of a further assay is GP5d cells. As to the kind of experiment: GP5d cell proliferation assay (colorectal cancer, G12D), 5 days. Conditions: Homo sapiens, 120 h. How it is done:
GP5d Cell Proliferation Assay (Colorectal Cancer, G12D)
(§1) GP5d cells (ECACC 95090715) are dispensed into white bottom opaque 96 well plates at a density of 5000 cells per well in 100 μL DMEM (BioWhittaker, Cat #BE12-605F) supplemented with 10% FCS. […] Compounds (10 mM stock in DMSO) are added at logarithmic dose series using the HP Digital Dispenser D300 (Tecan), normalizing for added DMSO. For the TO time point measurement, untreated cells are analysed at the time of compound addition. Plates are incubated for 5 days, and cell viability is measured using CellTiter-Glo luminescent cell viability reagent (Promega, Cat. No G7570). Viability (stated as percent of control) is defined as relative luminescence units RLU of each well divided by the RLU of cells in DMSO controls. IC50 values were computed from relative viability values using a four parametric logistic model.

For a further assay, the system named is SW620 cells. As to the kind of experiment: SW620 cell proliferation assay (colorectal cancer, G12V), 5 days. Conditions: Homo sapiens, SW-620, 120 h. How it is done: SW620 Cell Proliferation Assay (Colorectal Cancer, G12V)
as §1, with “SW620” for “GP5d”, “(ATCC CCL-227)” for “(ECACC 95090715)”, “plates (Perkin Elmer cat no. 5680)” for “plates”, “2000” for “5000”

[1] abbreviates: assay 1, read-out: H358 (assay 1) IC50.
The mark [2] stands for this setting: assay 2, read-out: H358 (assay 2) IC50.

Broadly, the DC50 is the concentration giving 50% degradation. A high value points to degradation only at high concentration. The pIC50 is −log10 of the IC50, conventionally taken in molar units. `CC(C)C(C(=O)N1C[C@H](O)C[C@H]1C(=O)NCc1ccc(-n2ccnc2)cc1)c1cc(OCCCCN2CCCN(c3nccc(-c4noc([C@@]5(C)CCCc6sc(N)c(C#N)c65)n4)n3)[C@@H](C)C2)no1` (some centres unmarked) [I-19] registered a DC50 on KRAS(G12D) of 6.7 nM. Besides, the “Dmax 18 h” value at KRAS(G12D) amounted to 93 % Ctrl. The pIC50 is 6.46 with NCI-H358 cells (setting [1]), 7.63 with GP5d cells and 7.54 in the assay with SW620 cells.

The compound `Cc1cc(CNC(=O)[C@@H]2C[C@@H](O)CN2C(=O)C(c2cc(OCCCCN3CCCN(c4nccc(-c5noc([C@@]6(C)CCCc7sc(N)c(C#N)c76)n5)n4)[C@@H](C)C3)no2)C(C)C)c(F)cc1-c1scnc1C` (some centres unmarked) [I-13] gave a DC50 on KRAS(G12D) of 45.2 nM. Moreover, on KRAS(G12D), the “Dmax 18 h” value was 87 % Ctrl. Further, the pIC50 with NCI-H358 cells (setting [1]) is 6.33; with NCI-H358 cells (setting [2]), 6.47; with GP5d cells it was 6.88; in the assay with SW620 cells, 6.69.

`Cc1cc(CNC(=O)[C@@H]2C[C@@H](O)CN2C(=O)C(c2cc(OCCCCN3CCCN(c4nccc(-c5noc([C@@]6(C)CCCc7sc(N)c(C#N)c76)n5)n4)[C@@H](C)C3)no2)C(C)C)ccc1-c1scnc1C` (some centres unmarked) [I-10]: the DC50 at KRAS(G12D) was 15.4 nM. Moreover, at KRAS(G12D), the “Dmax 18 h” value was 91 % Ctrl. The pIC50 is 6.58 in the assay on NCI-H358 cells (setting [1]), 6.69 with NCI-H358 cells (setting [2]), 7.41 in the assay on GP5d cells and 6.94 in the assay with SW620 cells.

`CC(C)C(C(=O)N1C[C@H](O)C[C@H]1C(=O)NCc1ccc(Br)cc1)c1cc(OCCCCN2CCCN(c3nccc(-c4noc([C@@]5(C)CCCc6sc(N)c(C#N)c65)n4)n3)[C@@H](C)C2)no1` (some centres unmarked) [I-7] had a DC50 at KRAS(G12D) of 11 nM. Besides, on KRAS(G12D), the “Dmax 18 h” value turned out to be 89 % Ctrl. Besides, the pIC50 in the assay with NCI-H358 cells (setting [1]) is 6.32; with NCI-H358 cells (setting [2]), 6.75; in the assay on GP5d cells, 7.63; in the assay with SW620 cells it was 7.25.

Compound `Cc1ncsc1-c1ccc(CNC(=O)[C@@H]2C[C@@H](O)CN2C(=O)C(c2cc(OCCCCN3CCN(c4nccc(-c5noc([C@@]6(C)CCCc7sc(N)c(C#N)c76)n5)n4)[C@@H](C)C3)no2)C(C)C)cc1` (some centres unmarked) [I-11] came in with a DC50 at KRAS(G12D) of 35.1 nM. Moreover, the “Dmax 18 h” value at KRAS(G12D) turned out to be 57 % Ctrl. Further, the pIC50 in the assay with NCI-H358 cells (setting [1]) is 6.15; with NCI-H358 cells (setting [2]), 6.46; in the assay with GP5d cells it was at most 5.05; in the assay with SW620 cells it was 5.05.

As to `CC(C)C(C(=O)N1C[C@H](O)C[C@H]1C(=O)NCc1ccc(Cl)cc1)c1cc(OCCCCN2CCCN(c3nccc(-c4noc([C@@]5(C)CCCc6sc(N)c(C#N)c65)n4)n3)[C@@H](C)C2)no1` (some centres unmarked) [I-20], half-maximal degradation at KRAS(G12D) (DC50) was put at 8.6 nM. Moreover, the “Dmax 18 h” value on KRAS(G12D) worked out at 89 % Ctrl. In addition, the negative logarithm of the IC50 (pIC50) was 6.36 in the assay with NCI-H358 cells (setting [1]), 6.42 in the assay on NCI-H358 cells (setting [2]), 7.03 in the assay on GP5d cells and 7.08 with SW620 cells.

At KRAS(G12D), `CC(C)c1ccc(CNC(=O)[C@@H]2C[C@@H](O)CN2C(=O)C(c2cc(OCCCCN3CCCN(c4nccc(-c5noc([C@@]6(C)CCCc7sc(N)c(C#N)c76)n5)n4)[C@@H](C)C3)no2)C(C)C)cc1` (some centres unmarked) [I-23] registered a DC50 of 76.7 nM. Moreover, the “Dmax 18 h” value on KRAS(G12D) was 82 % Ctrl. Besides, the negative-log IC50 (pIC50) was 5.94 in the assay on NCI-H358 cells (setting [1]), 6.28 in the assay on NCI-H358 cells (setting [2]), 6.07 in the assay on GP5d cells and 6.57 with SW620 cells.

At KRAS(G12D), `Cc1ncsc1-c1ccc(CNC(=O)[C@@H]2C[C@@H](O)CN2C(=O)C(c2cc(OCCCN3CCCN(c4nccc(-c5noc([C@@]6(C)CCCc7sc(N)c(C#N)c76)n5)n4)[C@@H](C)C3)no2)C(C)C)cc1` (some centres unmarked) [I-1] gave a DC50 of 6.4 nM. Also, the “Dmax 18 h” value at KRAS(G12D) turned out to be 94 % Ctrl. Further, the pIC50 with NCI-H358 cells (setting [1]) is 6.82; in the assay on NCI-H358 cells (setting [2]), 7.02; in the assay on GP5d cells, 7.65; in the assay with SW620 cells, 7.56.

In turn, `Cc1ncsc1-c1ccc(CNC(=O)[C@@H]2C[C@@H](O)CN2C(=O)C(c2cc(OCCCCN3CCCN(c4nccc(-c5cc([C@@]6(C)CCCc7sc(N)c(C#N)c76)sn5)n4)[C@@H](C)C3)no2)C(C)C)cc1` (some centres unmarked) [I-12] showed a DC50 on KRAS(G12D) of 42.1 nM. The “Dmax 18 h” value on KRAS(G12D) is listed as 86 % Ctrl. In addition, the pIC50 is 6.39 with NCI-H358 cells (setting [1]), 6.93 in the assay on NCI-H358 cells (setting [2]), 6.97 with GP5d cells and 6.96 in the assay with SW620 cells.

The compound `Cc1ncsc1-c1ccc(CNC(=O)[C@@H]2C[C@@H](O)CN2C(=O)C(c2cc(OCCCCN3CCCN(c4nccc(-c5noc([C@@]6(C)CCCc7sc(N)c(C#N)c76)n5)n4)[C@@H](C)C3)no2)C(C)C)cc1F` (some centres unmarked) [I-5] gave a DC50 on KRAS(G12D) of 6.5 nM. The “Dmax 18 h” value on KRAS(G12D) is 92 % Ctrl. Moreover, the pIC50 is 6.93 with NCI-H358 cells (setting [1]), 7.23 in the assay on NCI-H358 cells (setting [2]), 7.86 with GP5d cells and 7.32 in the assay on SW620 cells.
